# Assay results published in ChEMBL document CHEMBL1764994, “QSAR-based permeability model for drug-like compounds” (Bioorg Med Chem, 2011).
# Test system: Caco-2
# Conditions: human, Caco-2, 2 h
# 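Throughout, for permeability: apparent permeability through Caco-2 cell membranes, with the permeated amount quantified by LC-MS/MS.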
row,SMILES,logPapp
1,CC[C@H](C)C(=O)O[C@H]1C[C@H](O)C=C2C=C[C@H](C)[C@H](CC[C@@H](O)C[C@@H](O)CC(=O)O)[C@H]21 [PRAVASTATIN],-6.56
2,CC(C)[C@H](N)C(=O)OCCOCn1cnc2c(=O)[nH]c(N)nc21 [VALACYCLOVIR],-6.52
3,CCOC(=O)[C@H](CCc1ccccc1)N[C@@H](C)C(=O)N1CCC[C@H]1C(=O)O,-6.1

# Test system: Caco-2
# Conditions: human
row,SMILES,logPapp
1,CC[C@H](C)C(=O)O[C@H]1C[C@H](O)C=C2C=C[C@H](C)[C@H](CC[C@@H](O)C[C@@H](O)CC(=O)O)[C@H]21 [PRAVASTATIN],-5.64
2,CC(C)[C@H](N)C(=O)OCCOCn1cnc2c(=O)[nH]c(N)nc21 [VALACYCLOVIR],-6.3
3,CCOC(=O)[C@H](CCc1ccccc1)N[C@@H](C)C(=O)N1CCC[C@H]1C(=O)O,-5.7

# Test system: Caco-2
# Conditions: human, Caco-2, 2 h
# Remark: another data set of the same source
SMILES,logPapp,permeability
CC(C(=O)O)c1ccc2c(c1)Cc1cccnc1O2 (centres undefined) [PRANOPROFEN],-4.39,
CNC[C@H](O)c1ccc(O)c(O)c1 [EPINEPHRINE],-6.02,
CC(C)NCC(O)COc1cccc2[nH]ccc12 (centres undefined) [PINDOLOL],-4.41,
CC(C)(C)NC[C@H](O)COc1nsnc1N1CCOCC1 [TIMOLOL],-4.43,
CN/C(=N/CCSCc1nc[nH]c1C)NC#N [CIMETIDINE],-5.88,
NCCc1ccc(O)c(O)c1 [DOPAMINE],-5.03,
OC[C@@H](O)[C@@H](O)[C@H](O)[C@H](O)CO [MANNITOL],,permeable
COCCc1ccc(OCC(O)CNC(C)C)cc1 (centres undefined) [METOPROLOL],,permeable
CN1CCC[C@H]1c1cccnc1 [NICOTINE],-4.58,
Cc1ccc(/C(=C\CN2CCCC2)c2cccc(/C=C/C(=O)O)n2)cc1 [ACRIVASTINE],-5.72,
CCCc1nc2c(C)cc(-c3nc4ccccc4n3C)cc2n1Cc1ccc(-c2ccccc2C(=O)O)cc1,-4.82,
N[C@@H]1[C@H]2CN(c3nc4c(cc3F)c(=O)c(C(=O)O)cn4-c3ccc(F)cc3F)C[C@@H]12 [TROVAFLOXACIN],-4.52,
C=CCOc1ccccc1OCC(O)CNC(C)C (centres undefined) [OXPRENOLOL],-4.21,
Cc1cc(=O)n(-c2ccccc2)n1C [ANTIPYRINE],,permeable
O=C(O)c1cc(/N=N/c2ccc(S(=O)(=O)Nc3ccccn3)cc2)ccc1O [SULFASALAZINE],-6.61,
CC(C(=O)O)c1cccc(C(=O)c2ccccc2)c1 (centres undefined) [KETOPROFEN],,permeable
CC#Cc1cn([C@@H]2O[C@H](CO)[C@@H](O)[C@@H]2O)c(=O)[nH]c1=O [NETIVUDINE],-6.17,
CNC(=NCCSCc1csc(N=C(N)N)n1)NC#N [TIOTIDINE],-5.66,
Cn1c(=O)c2[nH]cnc2n(C)c1=O.O [THEOPHYLLINE],-4.4,permeable
CC(=O)[C@H]1CC[C@H]2[C@@H]3CCC4=CC(=O)CC[C@]4(C)[C@H]3CC[C@]12C [PROGESTERONE],-4.55,
CC(C(=O)O)c1ccc(C(=O)c2ccccc2)s1 (centres undefined) [TIAPROFENIC ACID],-4.41,
CNC(=C[N+](=O)[O-])NCCSCc1ccc(CN(C)C)o1 [RANITIDINE],-6.2,permeable
C[C@](N)(Cc1ccc(O)c(O)c1)C(=O)O [METHYLDOPA],,permeable
c1ccc(C2(N3CCCCC3)CCCCC2)cc1 [PHENCYCLIDINE],-4.61,
Clc1cccc(Cl)c1N=C1NCCN1 [CLONIDINE],-4.66,
CC1(C)S[C@@H]2[C@H](NC(=O)Cc3ccccc3)C(=O)N2[C@H]1C(=O)O [PENICILLIN G],-6.11,
C[C@H](CCC(=O)NCCS(=O)(=O)O)[C@H]1CC[C@H]2[C@@H]3[C@H](O)C[C@@H]4C[C@H](O)CC[C@]4(C)[C@H]3C[C@H](O)[C@]12C [TAUROCHOLIC ACID],-4.46,
CC1(C)S[C@@H]2[C@H](NC(=O)[C@H](N)c3ccc(O)cc3)C(=O)N2[C@H]1C(=O)O [AMOXICILLIN],,permeable
NC(=O)N1c2ccccc2C=Cc2ccccc21 [CARBAMAZEPINE],-5.3,permeable
CC(C)n1c(/C=C/C(O)CC(O)CC(=O)O)c(-c2ccc(F)cc2)c2ccccc21 (centres undefined) [FLUVASTATIN],,permeable
